Literature values as cited in US7572808B2, “Triazolopyridine cannabinoid receptor 1 antagonists” (Bristol-Myers Squibb Company, priority 2005, dated 2009).
Read-outs that look alike come from different tables or passages of the source.

Assays:
[1] = human subjects, 16 week trial period, Phase IIb
[2] = chronic administration for two weeks

| Structure (SMILES) | body weight [1] | body weight [2] |
| --- | --- | --- |
| Cc1c(C(=O)NN2CCCCC2)nn(-c2ccc(Cl)cc2Cl)c1-c1ccc(Cl)cc1 [SR-141716] | dose-dependently reduced body weight | – |
| Cc1c(C(=O)NN2CCCCC2)nn(-c2ccc(Cl)cc2Cl)c1-c1ccc(I)cc1 [AM-251] | – | substantial body weight reduction |
